Patent US10287267B2, “Isoquinolin-3-yl carboxamides and preparation and use thereof” (Samumed, LLC, priority 2016, dated 2019)

Key:
[1] = system: Tau phosphorylation at Ser396 (pSer396); assay: Tau phosphorylation assay (pSer396 ELISA / western blot) in SH-SY5Y cells; type: cell-based, human; settings: Homo sapiens; SH-SY5Y cells, overnight (16-18 h) exposure; read-out: pSer396 Tau EC50;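 also: EC50 for reduction of Tau pSer396 in lysed cells, measured by colorimetric ELISA or chemiluminescent western blot, both using the same pSer396 antibody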
recombinant GSK3β kinase = recombinant GSK3β kinase (Homo sapiens (Human), UniProt P49841); assay: GSK3β kinase assay (Ser/Thr 09 peptide Z-lyte FRET); type: biochemical; settings: 46 μM ATP, 1 h room temperature;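 also: kinase activity read as coumarin to fluorescein emission ratio, 11-point threefold dilutions from 10 µM to 0.0003 µM in duplicate, unphosphorylated and phosphorylated peptide as 0% and 100% controls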
[2] = target: recombinant DYRK1A kinase (Homo sapiens (Human), UniProt Q13627); assay: DYRK1A kinase assay (Ser/Thr 18 peptide Z-lyte FRET); type: biochemical; settings: 30 μM ATP, 1 h room temperature;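 also: Read-out is the coumarin to fluorescein emission ratio, referenced to unphosphorylated (0%) and phosphorylated (100%) Ser/Thr 18 peptide controls, values from dose-response curves by non-linear regression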
IL-6 = IL-6 inhibition in LPS-stimulated human peripheral blood mononuclear cells (HTRF); type: cell-based; settings: Homo sapiens, PBMC; for EC50: Table 9, huPBMCs, LPS 50 ng/mL, 22 hours, dose-response starting from 10 μM;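 as to all read-outs here: IL-6 detected by HTRF with an XL665- and Cryptate-labelled anti-IL-6 antibody pair, samples run in duplicate, EC50 obtained from a four-parameter Levenberg-Marquardt curve fit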
Protocol: After 22 hour incubation, a mixture of anti-IL6 XL665 and anti-IL-6 Cryptate diluted in reconstitution buffer (Catalog #62IL6PEC, Cisbio Inc., Bedford, Mass.) was added to each well. […] All samples were processed in duplicate. […] EC50 was determined using software generated by Dotmatics Limited (Windhill Bishops Stortford Herts, UK) using the Levenberg-Marquardt 4 parameter fitting procedure with finite different gradients.

[3] = system: Wnt pathway (Sp5-Luc reporter, TCF/LEF binding sites) in SW480 colon carcinoma cells; assay: Screening assay for Wnt activity: Sp5-Luc reporter gene assay; type: cell-based, human; settings: Homo sapiens; for EC50: Sp5-Luc reporter, SW480 cells, 36 to 48 hours;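 as to all read-outs here: firefly luciferase luminescence read in stably transduced SW480 cells carrying the Sp5 promoter reporter with eight TCF/LEF sites, compounds given in 0.1% DMSO final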
Protocol: The screening assay for Wnt activity is described as follows.
Following incubation, 15 μl of BriteLite Plus luminescence reagent (Perkin Elmer) was added to each well of the 384-well assay plates. The plates were placed on an orbital shaker for 2 min and then luminescence was quantified using the Envision (Perkin Elmer) plate reader.

[4] = system: SW480 colon carcinoma cells; assay: Cell viability assay (CellTiter-Glo); type: cell-based, human; settings: Homo sapiens; for EC50: 96 h, SW480 cells, CellTiter-Glo, four days incubation
[5] = system: α-smooth muscle actin (αSMA) positive LL29 cells; assay: Inhibition of fibrotic process: αSMA in TGF-β1 treated primary human fibroblasts from IPF patients; type: cell-based; settings: Homo sapiens, Fibroblast; for EC50: 96 h, Table 8, LL29 fibroblasts from IPF patients, TGF-β1 20 ng/mL, 4 days, dose-response 10 μM to 0.94 nM; for inhibition at 10 µM: read-out: percent value in parentheses beside EC50 >10 μM;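 as to all read-outs here: controls were TGF-β1 stimulated wells with DMSO vehicle (positive) and cells given DMSO alone (negative), cultured in F12 medium with 1% fetal bovine serum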
[6] = SW480, read-out: percent inhibition at 10 μM

Chain of recombinant GSK3β kinase (P49841 whole entry): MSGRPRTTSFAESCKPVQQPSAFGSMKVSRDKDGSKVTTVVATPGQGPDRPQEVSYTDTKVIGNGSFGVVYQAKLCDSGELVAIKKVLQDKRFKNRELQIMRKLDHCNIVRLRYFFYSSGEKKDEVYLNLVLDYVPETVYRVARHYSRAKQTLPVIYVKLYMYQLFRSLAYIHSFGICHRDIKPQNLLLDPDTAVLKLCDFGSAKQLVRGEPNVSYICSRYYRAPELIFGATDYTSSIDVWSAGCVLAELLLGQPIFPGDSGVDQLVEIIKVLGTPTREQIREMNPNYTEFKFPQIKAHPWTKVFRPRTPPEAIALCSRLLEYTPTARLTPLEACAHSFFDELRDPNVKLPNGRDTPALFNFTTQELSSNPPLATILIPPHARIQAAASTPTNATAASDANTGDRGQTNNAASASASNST

**Q.** O=C(Nc1cc2cc(-c3cncs3)ccc2cn1)C1(F)CCCCC1 [Compound 704, 1-Fluoro-N-(6-(thiazol-5-yl)isoquinolin-3-yl)cyclohexane-1-carboxamide] was tested. Which EC50 [1] did it give?
**A.** 10000 nM

**Q.** What about the EC50 (recombinant GSK3β kinase) of the same compound?
**A.** 1830 nM

**Q.** And the EC50 [2]?
**A.** 8.2 nM

**Q.** And the inhibition at 10 µM (IL-6; read-out: percent value in parentheses beside EC50 >10 μM)?
**A.** 4.8%

**Q.** And the EC50 (IL-6)?
**A.** > 10000 nM

**Q.** And the inhibition at 10 µM [3, 6]?
**A.** 10.2%

**Q.** What about the EC50 [3] of the same compound?
**A.** > 10000 nM

**Q.** And the EC50 [4]?
**A.** > 10000 nM

**Q.** What about the inhibition at 10 µM [4, 6] of the same compound?
**A.** 18.1%

**Q.** And the EC50 [5]?
**A.** 4380 nM

**Q.** How did the EC50 [1] turn out when CN(C)[C@H]1CC[C@H](C(=O)Nc2cc3cc(-c4cncs4)ccc3cn2)CC1 [Compound 707, trans-4-(Dimethylamino)-N-(6-(thiazol-5-yl)isoquinolin-3-yl)cyclohexane-1-carboxamide] was run?
**A.** 449 nM

**Q.** What about the EC50 (recombinant GSK3β kinase) of the same compound?
**A.** 46 nM

**Q.** And the EC50 [2]?
**A.** 0.9 nM

**Q.** And the EC50 (IL-6)?
**A.** 446 nM

**Q.** And the EC50 [3]?
**A.** 472 nM

**Q.** And the EC50 [4]?
**A.** 947 nM

**Q.** And the EC50 [5]?
**A.** 4240 nM

**Q.** O=C(Nc1cc2cc(-c3cncs3)ccc2cn1)[C@H]1CC[C@H](CN2CC(F)C2)CC1 [Compound 711, trans-4-((3-Fluoroazetidin-1-yl)methyl)-N-(6-(thiazol-5-yl)isoquinolin-3-yl)cyclohexane-1-carboxamide] was tested. Which EC50 [1] did it give?
**A.** 443 nM

**Q.** And the EC50 (recombinant GSK3β kinase)?
**A.** 67 nM

**Q.** What about the EC50 [2] of the same compound?
**A.** 1 nM

**Q.** And the EC50 (IL-6)?
**A.** 1080 nM

**Q.** What about the EC50 [3] of the same compound?
**A.** 703 nM

**Q.** And the EC50 [4]?
**A.** 706 nM

**Q.** What about the EC50 [5] of the same compound?
**A.** 540 nM

**Q.** How did the EC50 [1] turn out when O=C(Nc1cc2cc(-c3cncs3)ccc2cn1)C1CNC1 [Compound 713, N-(6-(Thiazol-5-yl)isoquinolin-3-yl)azetidine-3-carboxamide] was run?
**A.** 5000 nM

**Q.** And the EC50 (recombinant GSK3β kinase)?
**A.** 98 nM

**Q.** And the EC50 [2]?
**A.** 3.1 nM

**Q.** What about the EC50 (IL-6) of the same compound?
**A.** 3630 nM

**Q.** What about the EC50 [3] of the same compound?
**A.** 9250 nM

**Q.** What about the EC50 [4] of the same compound?
**A.** 6980 nM

**Q.** And the EC50 [5]?
**A.** > 10000 nM

**Q.** And the inhibition at 10 µM [5]?
**A.** 37.6%

**Q.** With CN1CCC(C(=O)Nc2cc3cc(-c4cncs4)ccc3cn2)CC1 [Compound 718, 1-Methyl-N-(6-(thiazol-5-yl)isoquinolin-3-yl)piperidine-4-carboxamide] as the compound, how does the EC50 [1] read?
**A.** 294 nM

**Q.** And the EC50 (recombinant GSK3β kinase)?
**A.** 79 nM

**Q.** What about the EC50 [2] of the same compound?
**A.** 1.3 nM

**Q.** And the EC50 (IL-6)?
**A.** 406 nM

**Q.** What about the EC50 [3] of the same compound?
**A.** 589 nM

**Q.** And the EC50 [4]?
**A.** 483 nM

**Q.** What about the EC50 [5] of the same compound?
**A.** 168 nM

**Q.** How did the EC50 [1] turn out when O=C(Nc1cc2cc(-c3cncs3)ccc2cn1)C1CCN(C2COC2)CC1 [Compound 737, 1-(Oxetan-3-yl)-N-(6-(thiazol-5-yl)isoquinolin-3-yl)piperidine-4-carboxamide] was run?
**A.** 865 nM

**Q.** And the EC50 (recombinant GSK3β kinase)?
**A.** 62 nM

**Q.** What about the EC50 [2] of the same compound?
**A.** 1 nM

**Q.** And the EC50 (IL-6)?
**A.** 1180 nM

**Q.** And the EC50 [3]?
**A.** 1290 nM

**Q.** And the EC50 [4]?
**A.** 4340 nM

**Q.** And the EC50 [5]?
**A.** 80 nM

**Q.** Which results are given for O=C(Nc1cc2cc(-c3cncs3)ccc2cn1)C1CCN(C(=O)CN2CCCC2)CC1 [Compound 741, 1-(2-(Pyrrolidin-1-yl)acetyl)-N-(6-(thiazol-5-yl)isoquinolin-3-yl)piperidine-4-carboxamide]?
**A.** EC50 [1]: 528 nM; EC50 (recombinant GSK3β kinase): 107 nM; EC50 [2]: 0.9 nM; EC50 (IL-6): 380 nM; EC50 [3]: 444 nM; EC50 [4]: 462 nM; EC50 [5]: 175 nM

**Q.** How did the EC50 [1] turn out when CN1CCC(N2CCC(C(=O)Nc3cc4cc(-c5cncs5)ccc4cn3)CC2)CC1 [Compound 743, 1′-Methyl-N-(6-(thiazol-5-yl)isoquinolin-3-yl)-[1,4′-bipiperidine]-4-carboxamide] was run?
**A.** 432 nM

**Q.** What about the EC50 (recombinant GSK3β kinase) of the same compound?
**A.** 63 nM

**Q.** And the EC50 [2]?
**A.** 1.3 nM

**Q.** And the EC50 (IL-6)?
**A.** 1130 nM

**Q.** What about the EC50 [3] of the same compound?
**A.** 9490 nM

**Q.** And the EC50 [4]?
**A.** 1540 nM

**Q.** And the EC50 [5]?
**A.** 447 nM

**Q.** How did the EC50 [1] turn out when CC(C(=O)Nc1cc2cc(-c3cncs3)ccc2cn1)N1CCCC1 (stereo not shown) [Compound 758, 2-(Pyrrolidin-1-yl)-N-(6-(thiazol-5-yl)isoquinolin-3-yl)propanamide] was run?
**A.** 384 nM

**Q.** And the EC50 (recombinant GSK3β kinase)?
**A.** 50 nM

**Q.** What about the EC50 [2] of the same compound?
**A.** 24.3 nM

**Q.** What about the EC50 (IL-6) of the same compound?
**A.** 2870 nM

**Q.** And the EC50 [3]?
**A.** 1250 nM

**Q.** What about the EC50 [4] of the same compound?
**A.** 1340 nM

**Q.** And the EC50 [5]?
**A.** 265 nM

**Q.** What does the source list for O=C(CN1CCCCC1)Nc1cc2cc(-c3cncs3)ccc2cn1 [Compound 760, 2-(Piperidin-1-yl)-N-(6-(thiazol-5-yl)isoquinolin-3-yl)acetamide]?
**A.** EC50 [1]: 1200 nM; EC50 (recombinant GSK3β kinase): 133 nM; EC50 [2]: 3.8 nM; EC50 (IL-6): 1240 nM; EC50 [3]: 3970 nM; EC50 [4]: 3280 nM; EC50 [5]: 765 nM

**Q.** What does the source list for CN1CCN(CC(=O)Nc2cc3cc(-c4cncs4)ccc3cn2)CC1 [Compound 767, 2-(4-Methylpiperazin-1-yl)-N-(6-(thiazol-5-yl)isoquinolin-3-yl)acetamide]?
**A.** EC50 [1]: 1000 nM; EC50 (recombinant GSK3β kinase): 157 nM; EC50 [2]: 4.3 nM; EC50 (IL-6): 3820 nM; EC50 [3]: 3220 nM; EC50 [4]: 9050 nM; EC50 [5]: > 10000 nM; inhibition at 10 µM [5]: 33.2%
